Reference: the NIST ThermoML archive (doi:10.1021/je400790d)

Assay: mn = molality of the nth substance listed, in mol/kg
Conditions: 100 kPa, Liquid, Vibrating tube method

CCCC[N+]1(C)CCOCC1.O=S(=O)([N-]S(=O)(=O)C(F)(F)F)C(F)(F)F + CC#N
mass density [kg/m3]
Conditions	m1 = 0.00879	m1 = 0.01653	m1 = 0.02761	m1 = 0.03802	m1 = 0.05226	m1 = 0.06737	m1 = 0.08642	m1 = 0.1101	m1 = 0.13	m1 = 0.1623
298.15 K	778.005	779.272	781.074	782.759	785.036	787.436	790.427	794.115	797.144	802.019
303.15 K	772.575	773.845	775.647	777.331	779.607	781.999	784.994	788.679	791.717	796.577
308.15 K	767.12	768.39	770.192	771.873	774.153	776.549	779.543	783.226	786.253	791.135
313.15 K	761.631	762.901	764.703	766.385	768.667	771.064	774.057	777.74	780.771	785.644
318.15 K	756.103	757.375	759.178	760.862	763.147	765.551	768.552	772.235	775.257	780.136

CC[N+]1(C)CCOCC1.O=S(=O)([N-]S(=O)(=O)C(F)(F)F)C(F)(F)F + CC#N
mass density [kg/m3]
Conditions	m1 = 0.009434	m1 = 0.01654	m1 = 0.02652	m1 = 0.03788	m1 = 0.05256	m1 = 0.06858	m1 = 0.08695	m1 = 0.1078	m1 = 0.1316	m1 = 0.1634
298.15 K	778.145	779.333	780.985	782.85	785.24	787.81	790.74	794.037	797.714	802.54
303.15 K	772.716	773.905	775.56	777.429	779.815	782.385	785.318	788.611	792.286	797.108
308.15 K	767.263	768.452	770.11	771.974	774.365	776.944	779.877	783.146	786.836	791.661
313.15 K	761.774	762.964	764.619	766.483	768.876	771.442	774.373	777.657	781.334	786.155
318.15 K	756.247	757.44	759.113	760.976	763.372	765.945	768.855	772.158	775.832	780.648

CCCCCCCC[N+]1(C)CCOCC1.O=S(=O)([N-]S(=O)(=O)C(F)(F)F)C(F)(F)F + CC#N
mass density [kg/m3]
Conditions	m1 = 0.00838	m1 = 0.01564	m1 = 0.02472	m1 = 0.03714	m1 = 0.05106	m1 = 0.06653	m1 = 0.08502	m1 = 0.1052	m1 = 0.1294	m1 = 0.1609
298.15 K	777.974	779.195	780.71	782.766	785.044	787.549	790.507	793.696	797.448	802.25
303.15 K	772.547	773.77	775.289	777.348	779.63	782.14	785.101	788.29	792.039	796.85
308.15 K	767.094	768.318	769.839	771.899	774.185	776.698	779.664	782.856	786.61	791.423
313.15 K	761.606	762.833	764.357	766.421	768.71	771.222	774.189	777.385	781.149	785.97
318.15 K	756.08	757.311	758.838	760.906	763.198	765.716	768.695	771.901	775.667	780.493
